Assay results from patent publication US5358712A, “Radiopharmaceutical agents for the detection of Alzheimer's disease” (Regents of the University of Minnesota, priority 1993, dated 1994).

Assays:
[1] = Tissue distribution (biodistribution) of radioiodinated compound in the rat; details: for Brain: Blood Ratio / Heart: Blood Ratio / radioactivity in blood / radioactivity in brain / radioactivity in heart / radioactivity in kidney / radioactivity in liver / radioactivity in lung / radioactivity in muscle / radioactivity in spleen: iv
[2] = tested on: rat brain; assay: Ex vivo autoradiographic studies, regional distribution in the rodent brain; design: species or system rat (male Wistar); details: 3 hours
Description: Four male Wistar rats weighing 300-330 g. were anesthetized with diethyl ether. While under anesthesia two animals each received an intravenous dose of 300 μCi of (-)-4-[^125 I]HIPP in […] of 50% aqueous ethanol. The second pair of animals received an iv dose of (+)-4-[^125I]HIPP (170 μCi) in the same solvent. The animals were sacrificed by decapitation three hours following radiotracer administration. The brains were harvested, embedded in Tissue Tek OCT embedding medium and frozen to -38° C. Twenty-micron thick brain sections were obtained at -15° C. using a Reicheft HistoSTAT cryostat microtome. The sections were dried and opposed to Kodak NMC film for autoradiography accompanied by external standards (^125 I-labelled microscales from Amersham). Images were subsequently digitized based on the linear scale obtained from these standards.

[3] = tested on: vesamicol receptor; assay: Blocking experiments: inhibition of radiotracer accumulation in the rat by coadministered compound; format: in vivo, rat (male Wistar); details: rat, 60 min; for Brain: Blood Ratio / Heart: Blood Ratio / radioactivity in liver: iv
How it was run: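 Male Wistar rats (n=3/group) got iv radiotracer, alone or coadministered with blocker (e.g. (+)/(−)-HBrPP·HCl 1.3 μmol/kg, vesamicol·HCl 1.1 μmol/kg, or 0.31–0.53 mg/kg in other series). Blood and tissues taken 60 min post-injection to assess radiotracer accumulation.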

[4] = tested on: vesicular acetylcholine storage; details: cited from earlier work
[5] = tested on: monkey brain; assay: Brain imaging study (SPECT); format: in vivo; details: cynomolgus monkey
Description: These studies were conducted with a Picker 3-head PRISM camera equipped with a high-resolution fan beam collimator. A 5-Kg male cynomolgus monkey, anesthetized with halothane, received an intravenous dose of 12 mCi of (-)-4-[^123 I]HIPP ((-)-[^123 I]5) in 1 ml of 50% ethanol-isotonicsaline. Data acquisition which commenced simultaneously, in the "step and shoot" mode, was divided into one 5minute segment, six 10-minute segments and a final 20-minute segment. At 18 hours post-injection, data was acquired under similar conditions for both the head and the heart, over a 20 minute period. For cardiac imaging, the camera was equipped with a medium-energy-parallel-hole collimator. The data was subsequently processed to obtain both a time-activity curve and images in the transaxial and sagittal planes. To obtain an estimate of the fractional accumulation of (-)-4-^123 I]HIPP in the monkey brain, a phantom filled consecutively with varying concentrations of aqueous Na^125 I was counted with the gamma camera to generate a standard curve.

[6] = tested on: vesamicol receptor; details: literature; cited from earlier work
[7] = coadministered blocker, listed as (-)-[^125 I]5
[8] = + (dl)-vesamicol HCl 0.3 (Table 3) or 0.31 mg/kg

## OC(Cc1ccc([125I])cc1)CN1CCC(c2ccccc2)CC1 (single isomer, unassigned; (-)) [(-)-4-[^125 l]HIPP] [2-Hydroxy-3-(4-iodophenyl)-1-(4-phenylpiperidyl)propane]
[1]; rat, 5 minutes post injection, listed as (-)-[^125 I]5
  injected dose found in the brain: 1.94 % of the injected dose
[1]; rat, 5 minutes post-injection, listed as (-)-[^125 I]5
  injected dose found in the heart: 1.2 % of the injected dose
[1]; rat, 5 minutes to 3 hours
  reduction of injected dose in the heart: 50%
[1]; rat, after 3 hours
  injected dose found in the heart: 0.59 % of the injected dose
[1]; rat, duration of the study (3 hours), listed as (-)-[^125 I]5
  concentration of radioactivity in the brain over time: remained essentially stable
[1]; rat, 5 min
  Brain: Blood Ratio: 12.3
  Heart: Blood Ratio: 16.4
  radioactivity in blood: 0.09 % dose/g
  radioactivity in brain: 1.03 % dose/g
  radioactivity in heart: 1.32 % dose/g
  radioactivity in kidney: 2.89 % dose/g
  radioactivity in liver: 1.33 % dose/g
  radioactivity in lung: 8.62 % dose/g
  radioactivity in muscle: 0.35 % dose/g
  radioactivity in spleen: 0.87 % dose/g
[1]; rat, 30 min
  Brain: Blood Ratio: 31.3
  Heart: Blood Ratio: 26.8
  radioactivity in blood: 0.03 % dose/g
  radioactivity in brain: 0.94 % dose/g
  radioactivity in heart: 0.74 % dose/g
  radioactivity in kidney: 2.23 % dose/g
  radioactivity in liver: 2.28 % dose/g
  radioactivity in lung: 4.80 % dose/g
  radioactivity in muscle: 0.19 % dose/g
  radioactivity in spleen: 1.09 % dose/g
[1]; rat, 60 min
  Brain: Blood Ratio: 55.5
  Heart: Blood Ratio: 40.3
  radioactivity in blood: 0.02 % dose/g
  radioactivity in brain: 0.98 % dose/g
  radioactivity in heart: 0.72 % dose/g
  radioactivity in kidney: 1.85 % dose/g
  radioactivity in liver: 2.0 % dose/g
  radioactivity in lung: 3.33 % dose/g
  radioactivity in muscle: 0.18 % dose/g
  radioactivity in spleen: 1.40 % dose/g
[1]; rat, 180 min
  Brain: Blood Ratio: 69.7
  Heart: Blood Ratio: 42.5
  radioactivity in blood: 0.01 % dose/g
  radioactivity in brain: 0.94 % dose/g
  radioactivity in heart: 0.57 % dose/g
  radioactivity in kidney: 1.63 % dose/g
  radioactivity in liver: 2.43 % dose/g
  radioactivity in lung: 2.52 % dose/g
  radioactivity in muscle: 0.16 % dose/g
  radioactivity in spleen: 1.21 % dose/g
[1]; rat, throughout the study
  level of radioactivity in the blood: low
[1]; rodent (and monkey)
  brain retention (in words): comparable retention
[2]
  radioactivity in cerebellar molecular layer relative to granular layer: slightly higher concentration
  radioactivity in frontal cortex and caudate-putamen: Moderate levels
  radioactivity in pineal gland and nuclei of fifth and seventh cranial nerves: highest levels
  radioactivity in the white matter: relatively low
[3]; [7]
  reduction of accumulation of radioactivity in the brain: 70%
  reduction of accumulation of radioactivity in the heart: 84%
[3]; + (+)-7 HCl 0.53 mg/kg
  Brain: Blood Ratio: 5.6
  Heart: Blood Ratio: 2.5
  radioactivity in liver: 2.87 % dose/g of tissue
[3]; + (-)-7 HCl 0.53 mg/kg
  Brain: Blood Ratio: 7.1
  Heart: Blood Ratio: 3.0
  radioactivity in liver: 1.90 % dose/g of tissue
[3]; [8]
  Brain: Blood Ratio: 12.7
  Heart: Blood Ratio: 4.9
[3]; radiotracer only (control)
  Brain: Blood Ratio: 42.7
  Heart: Blood Ratio: 36.5

## CC(O)CN1CCC(c2ccccc2)CC1 (stereo not drawn) [Compound 14b]
[4]; addition of an α-methyl group
  increase in activity relative to ethanol analog 4: thirty-fold increase in activity

## OC(Cc1ccc([123I])cc1)CN1CCC(c2ccccc2)CC1 (single isomer, unassigned; (-)) [(-)-4-[^123 I]HIPP, 2-Hydroxy-3-(4-iodophenyl)-1-(4-phenylpiperidyl)propane]
[5]; 11/2 and 18 hours post-injection
  brain activity relative to surrounding tissues: high levels of activity
[5]; iv
  t-1/2 in the monkey brain: 9 h
[5]; iv, estimated
  accumulation within the brain: ~3 % of the injected dose

## Nc1cccc2c1CC(N1CCC(c3ccccc3)CC1)C(O)C2 (stereo not drawn) [Compound 2]
[4]; Kaufman et al 1988, Rogers et al 1989
  vesamicol-like inhibitory activity (in words): potent
[6]
  ligand potency at the vesamicol receptor (in words): potent ligands
